Test results reported in publication PMC12396409, “Screening and hit evaluation of a microbial metabolite library against the pathogenic Plasmodium falciparum and Toxoplasma gondii parasites” (International Journal for Parasitology: Drugs and Drug …, 2025).
Like-named read-outs stand apart in the source and are kept apart here. Where a SMILES comes first, the peptide text is derived from it. Bridges are numbered along the chain shown (N, C = ends). [ ]: non-standard residue; d: D form. The star is where a group is joined. Octatrienoyl(2E,4E,6E) = C/C=C/C=C/C=C/C(=O)*; aIle = CC[C@@H](C)[C@H](N)C(=O)O; NMeA = CN[C@@H](C)C(=O)O

Experiments:
[1] = test system: P. falciparum 3D7 parasites; experiment: P. falciparum growth inhibition assay, 2-cycle (120 h treatment), delayed-death screen and dose-response; type: cell-based, Plasmodium falciparum; details: for activity at 2 µg/mL: Plasmodium falciparum, 3D7
[2] = test system: T. gondii RH strain (RH-Tub-eYFP) tachyzoites; experiment: microbe, parasite or virus in culture; type: cell-based, Toxoplasma gondii; details: 72 h; for percent parasite growth at 2 µg/mL: Toxoplasma gondii
[3] = test system: P. falciparum 3D7 parasites; experiment: P. falciparum growth inhibition assay, 1-cycle (72 h treatment), SYBR DNA staining (library screen at 2 μg/mL and dose-response); type: cell-based, Plasmodium falciparum; details: for activity at 2 µg/mL: Plasmodium falciparum, 3D7
[4] = P. falciparum 3D7, 120 h, library screen at 2 μg/mL, % growth, replicate 1
[5] = P. falciparum 3D7, 120 h, library screen at 2 μg/mL, % growth, replicate 2
[6] = T. gondii RH, library screen at 2 μg/mL, % growth, replicate 1
[7] = T. gondii RH, library screen at 2 μg/mL, % growth, replicate 2
[8] = P. falciparum 3D7, 72 h, library screen at 2 μg/mL, % growth, replicate 1
[9] = P. falciparum 3D7, 72 h, library screen at 2 μg/mL, % growth, replicate 2
[10] = P. falciparum, 120 h, parasite screen 2 μg/mL, % growth, replicate 1
[11] = P. falciparum, 120 h, parasite screen 2 μg/mL, % growth, replicate 2
[12] = T. gondii, parasite screen 2 μg/mL, % growth, replicate 1
[13] = T. gondii, parasite screen 2 μg/mL, % growth, replicate 2
[14] = P. falciparum, 72 h, parasite screen 2 μg/mL, % growth, replicate 1
[15] = P. falciparum, 72 h, parasite screen 2 μg/mL, % growth, replicate 2
[16] = library screen at 2 μg/mL, 120 h, % growth, replicate 1
[17] = library screen at 2 μg/mL, 120 h, % growth, replicate 2
[18] = library screen at 2 μg/mL, % growth, replicate 1
[19] = library screen at 2 μg/mL, % growth, replicate 2
[20] = library screen at 2 μg/mL, 72 h, % growth, replicate 1
[21] = library screen at 2 μg/mL, 72 h, % growth, replicate 2
[22] = P. falciparum, 120 h, screen at 2 μg/mL, replicate 1
[23] = P. falciparum, 120 h, screen at 2 μg/mL, replicate 2
[24] = T. gondii, screen at 2 μg/mL, replicate 1
[25] = P. falciparum, 72 h, screen at 2 μg/mL, replicate 1
[26] = P. falciparum, 72 h, screen at 2 μg/mL, replicate 2

COc1c(O)c(C)c(C)c(O)c1OC [BIA-H1651]
Pf_120h_%Growth_Rep1 [1, 4]: 17.29%
Pf_120h_%Growth_Rep2 [1, 5]: 12.27%
Tg_72h_%Growth_Rep1 [2, 6]: 138.57%
Tg_72h_%Growth_Rep2 [2, 7]: 100.12%
Pf_72h_%Growth_Rep1 [3, 8]: 6.09%
Pf_72h_%Growth_Rep2 [3, 9]: 2.27%

CC1(C)C=Cc2c(ccc3ccc(=O)oc23)O1 [Seselin]
Pf_120h_%Growth_Rep1 [1, 10]: 59.04%
Pf_120h_%Growth_Rep2 [1, 11]: 133.69%
Tg_72h_%Growth_Rep1 [2, 12]: 115.94%
Tg_72h_%Growth_Rep2 [2, 13]: 77.58%
Pf_72h_%Growth_Rep1 [3, 14]: 72.86%
Pf_72h_%Growth_Rep2 [3, 15]: 126.42%

CCCCCC(=O)OC1C(C)OC(OC2C(C)OC(OC3C(CC=O)CC(C)C(O)C=CC=CCC(C)OC(=O)CC(O)C3OC)C(O)C2N(C)C)CC1(C)O (stereo not shown) [BIA-L1365]
Pf_120h_%Growth_Rep1 [1, 4]: 2.62%
Pf_120h_%Growth_Rep2 [1, 5]: 15.42%
Tg_72h_%Growth_Rep1 [2, 6]: 22.41%
Tg_72h_%Growth_Rep2 [2, 7]: 22.70%
Pf_72h_%Growth_Rep1 [3, 8]: 29.67%
Pf_72h_%Growth_Rep2 [3, 9]: 36.72%

CC[C@H]1CCC[C@H](O[C@H]2CC[C@H](N(C)C)[C@@H](C)O2)[C@@H](C)C(=O)C2=C[C@@H]3[C@@H](C=C(C)[C@@H]4C[C@@H](O[C@@H]5O[C@@H](C)[C@H](OC)[C@@H](OC)[C@H]5OC)C[C@@H]34)[C@@H]2CC(=O)O1 [Spinosyn D]
Pf_120h_%Growth_Rep1 [1, 10]: 102.44%
Pf_120h_%Growth_Rep2 [1, 11]: 14.31%
Tg_72h_%Growth_Rep1 [2, 12]: 127.19%
Tg_72h_%Growth_Rep2 [2, 13]: 79.47%
IC50 ([3]; 3D7, 72 h treatment, mean ± S.D., n ≥ 3, read-out: IC50 (μM), P. falciparum): > 1 µM
Pf_72h_%Growth_Rep1 [3, 14]: 88.37%
Pf_72h_%Growth_Rep2 [3, 15]: 73.59%
Screen (P. falciparum) ([3]; library screen at 2 μg/mL, 3D7, 72 h, DD from the 120 h timepoint): I

C/C=C(/C)c1cc(O)c(C)c2c1Oc1c(C)c(O)cc(/C(C)=C\C)c1C(=O)O2 [Folipastatin]
Pf_120h_%Growth_Rep1 [1, 16]: 81.33%
Pf_120h_%Growth_Rep2 [1, 17]: 105.49%
Tg_72h_%Growth_Rep1 [2, 18]: 114.14%
Tg_72h_%Growth_Rep2 [2, 19]: 93.99%
Pf_72h_%Growth_Rep1 [3, 20]: 84.22%
Pf_72h_%Growth_Rep2 [3, 21]: 87.89%

C/C=C/c1cc2c(c(=O)o1)[C@H](O)[C@@H](O)[C@H](C)O2 [Radicinol]
Pf_120h_%Growth_Rep1 [1, 10]: 82.58%
Pf_120h_%Growth_Rep2 [1, 11]: 123.93%
Tg_72h_%Growth_Rep1 [2, 12]: 118.35%
Tg_72h_%Growth_Rep2 [2, 13]: 83.89%
Pf_72h_%Growth_Rep1 [3, 14]: 83.85%
Pf_72h_%Growth_Rep2 [3, 15]: 102.30%

C[C@H]1CCC/C=C/C(=O)c2c(O)cc(O)cc2CC(=O)O1 [Dehydrocurvularin, 10,11-]
Pf_120h_%Growth_Rep1 [1, 22]: 13.56%
Pf_120h_%Growth_Rep2 [1, 23]: 16.52%
Tg_72h_%Growth_Rep1 [2, 24]: 4.20%
Tg_72h_%Growth_Rep2 ([2]; T. gondii, screen at 2 μg/mL, replicate 2): 2.39%
Pf_72h_%Growth_Rep1 [3, 25]: 4.73%
Pf_72h_%Growth_Rep2 [3, 26]: 1.02%

CC[C@@H](C)[C@@H]1NC(=O)[C@@H](CC(C)C)NC(=O)[C@H](CC(C)C)NC(=O)[C@H](Cc2c[nH]c3ccccc23)NC(=O)CNC(=O)[C@H](CC(N)=O)NC1=O [Desotamide] (cyclo(GWL[dL][aIle]N))
activity at 2 µg/mL ([1]; library screen at 2 μg/mL, 120 h, % growth, replicate 1, read-out: Pf_120h_%Growth_Rep1): 36%
activity at 2 µg/mL ([1]; library screen at 2 μg/mL, 120 h, % growth, replicate 2, read-out: Pf_120h_%Growth_Rep2): 50.7%
percent parasite growth at 2 µg/mL ([2]; library screen at 2 μg/mL, % growth, replicate 1, read-out: Tg_72h_%Growth_Rep1): 120%
percent parasite growth at 2 µg/mL ([2]; library screen at 2 μg/mL, % growth, replicate 2, read-out: Tg_72h_%Growth_Rep2): 93%
activity at 2 µg/mL ([3]; library screen at 2 μg/mL, 72 h, % growth, replicate 1, read-out: Pf_72h_%Growth_Rep1): 67.3%
activity at 2 µg/mL ([3]; library screen at 2 μg/mL, 72 h, % growth, replicate 2, read-out: Pf_72h_%Growth_Rep2): 64.4%

C/C=C/C=C/C=C/C(=O)N[C@@H](Cc1ccccc1)C(=O)N[C@H]1COC(=O)[C@@H]2CCCN2C(=O)[C@H](C)NC(=O)[C@H](C)N(C)C(=O)[C@@H]2CCCN2C1=O [A 54556B] ({Octatrienoyl(2E,4E,6E)}-FSP[NMeA]AP; ester 2-C)
Pf_120h_%Growth_Rep1 [1, 16]: 65.42%
Pf_120h_%Growth_Rep2 [1, 17]: 57.54%
Tg_72h_%Growth_Rep1 [2, 18]: 115.90%
Tg_72h_%Growth_Rep2 [2, 19]: 86.45%
Pf_72h_%Growth_Rep1 [3, 20]: 78.68%
Pf_72h_%Growth_Rep2 [3, 21]: 74.34%

CCCCC/C=C/C=C\C=C/[C@H](O)[C@H](C)[C@H](C/C=C/[C@@H]1OC(=O)C=C[C@@H]1O)OS(=O)(=O)[O-].[Na+] [Sultriecin]
Pf_120h_%Growth_Rep1 [1, 10]: 87.78%
Pf_120h_%Growth_Rep2 [1, 11]: 130.19%
Tg_72h_%Growth_Rep1 [2, 12]: 105.98%
Tg_72h_%Growth_Rep2 [2, 13]: 90.75%
Pf_72h_%Growth_Rep1 [3, 14]: 90.74%
Pf_72h_%Growth_Rep2 [3, 15]: 116.83%

C/C=C/C[C@@H](C)[C@@H](O)[C@H]1C(=O)N[C@@H](CC)C(=O)N(C)CC(=O)N(C)[C@@H](CC(C)C)C(=O)N[C@@H](C(C)C)C(=O)N(C)[C@@H](CC(C)C)C(=O)N[C@@H](C)C(=O)N[C@H](C)C(=O)N(C)[C@@H](CC(C)C)C(=O)N(C)[C@@H](CC(C)C)C(=O)N(C)[C@H](C(C)C)C(=O)N1C [Cyclosporin H]
Pf_120h_%Growth_Rep1 [1, 22]: 5.94%
Pf_120h_%Growth_Rep2 [1, 23]: 7.89%
Tg_72h_%Growth_Rep1 [2, 24]: 148.50%
Pf_72h_%Growth_Rep1 [3, 25]: 6.54%
Pf_72h_%Growth_Rep2 [3, 26]: 2.27%
